Test results from the supplement of paper PMC10307832.

What was measured:
Assay in all cases: relative viability (nuclei count vs DMSO), 5 days (fraction); higher = more cells survive
AZD5582 + Lapatinib = compound: C[C@@H](C(=O)N[C@@H](C1CCCCC1)C(=O)N2CCC[C@H]2C(=O)N[C@@H]3[C@@H](CC4=CC=CC=C34)OCC#CC#CCO[C@@H]5CC6=CC=CC=C6[C@@H]5NC(=O)[C@@H]7CCCN7C(=O)[C@H](C8CCCCC8)NC(=O)[C@H](C)NC)NC [AZD5582] + CS(=O)(=O)CCNCc1ccc(-c2ccc3ncnc(Nc4ccc(OCc5cccc(F)c5)c(Cl)c4)c3c2)o1 [Lapatinib] (partner 2 µM)
Outline: (§1)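 Each reported value is a median over duplicate plates. It expresses relative viability: treated-well nuclei count divided by vehicle-well nuclei count. Lung cancer cell lines in 1536-well plates were dosed by pin tool a day after seeding, alone with one drug or with a fixed anchor-drug dose plus five library-drug doses (not always all listed) in √10 steps, and nuclei were counted after 5 days.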

[1] = compound: Cn1nnc2c(C(N)=O)ncn2c1=O [Temozolomide] + Cc1cc(Nc2cc(N3CCN(C)CC3)nc(Sc3ccc(NC(=O)C4CC4)cc3)n2)n[nH]1 [Tozasertib] (partner 0.1 µM)
Outline: as §1

Temozolomide + Alpelisib = compound: Cn1nnc2c(C(N)=O)ncn2c1=O [Temozolomide] + Cc1nc(NC(=O)N2CCC[C@H]2C(N)=O)sc1-c1ccnc(C(C)(C)C(F)(F)F)c1 [Alpelisib] (partner 2 µM)
Outline: as §1

Temozolomide + Olaparib = compound: Cn1nnc2c(C(N)=O)ncn2c1=O [Temozolomide] + O=C(c1cc(Cc2n[nH]c(=O)c3ccccc23)ccc1F)N1CCN(C(=O)C2CC2)CC1 [Olaparib] (partner 8 µM)
Outline: as §1

Cell Line	relative viability (AZD5582 + Lapatinib; first compound 0.001581 µM)	relative viability (AZD5582 + Lapatinib; first compound 0.005 µM)	relative viability (AZD5582 + Lapatinib; first compound 0.01581 µM)	relative viability (AZD5582 + Lapatinib; first compound 0.05 µM)	relative viability ([1]; first compound 0.2 µM)	relative viability ([1]; first compound 0.6325 µM)	relative viability ([1]; first compound 2 µM)	relative viability ([1]; first compound 6.325 µM)	relative viability ([1]; first compound 20 µM)	relative viability (Temozolomide + Alpelisib; first compound 0.2 µM)	relative viability (Temozolomide + Alpelisib; first compound 0.6325 µM)	relative viability (Temozolomide + Alpelisib; first compound 2 µM)	relative viability (Temozolomide + Alpelisib; first compound 6.325 µM)	relative viability (Temozolomide + Alpelisib; first compound 20 µM)	relative viability (Temozolomide + Olaparib; first compound 0.2 µM)	relative viability (Temozolomide + Olaparib; first compound 0.6325 µM)	relative viability (Temozolomide + Olaparib; first compound 2 µM)	relative viability (Temozolomide + Olaparib; first compound 6.325 µM)	relative viability (Temozolomide + Olaparib; first compound 20 µM)
LXF-289	0.895	0.929	0.823	0.922	0.241	0.208	0.216	0.169	0.186	1.06	0.997	1.04	0.992	0.947	1.11	1.13	1.03	0.951	0.774
NCI-H23	0.664	0.951	0.783	0.652	0.4	0.337	0.35	0.381	0.249	0.645	0.73	0.552	0.764	0.734	0.345	0.32	0.382	0.266	0.22
NCI-H322M	0.678	0.796	0.619	0.774		0.508	0.484	0.546	0.4		0.81	0.803	0.747	0.609	0.671	0.734	0.727	0.692	0.555
NCI-H358	0.484	0.566	0.477	0.452	0.0983	0.101	0.104	0.106	0.115	0.657	0.729	0.912	0.833	0.676	0.706	0.732	0.631	0.545	0.351
NCI-H460	0.836	0.959	0.932	1.43	0.441	0.418	0.518	0.368	0.339	0.58	0.526	0.51	0.479	0.461	0.488	0.47	0.366	0.317	0.214
NCI-H520	0.738	0.945	0.818	1.01	0.474	0.441	0.462	0.428	0.426	1.01	1.12	1.05	0.893	1.01	0.391	0.33	0.312	0.284	0.242
NCI-H596	0.851	0.829	0.959	0.326	0.978	1.04	0.89	0.769	1.01	0.582	0.494	0.567	0.48	0.482	0.685	0.694	0.764	0.677	0.657
NCI-H647	0.839	0.943	0.98	0.767	0.263	0.307	0.412	0.148	0.147	1.43	1.21	1.16	0.866	0.238	0.721	0.616	0.5	0.176	0.0916
NCI-H650	0.592	0.787	0.428	0.606	0.704	0.771	0.735	0.681	0.804	1.18	1.19	1.13	1.12	1.06	0.387	0.39	0.358	0.274	0.202
NCI-H661	0.38	0.561	0.53	0.716	0.351	0.351	0.352	0.362	0.337		0.618	0.759	0.714	0.545	0.744	0.735	0.731	0.634	0.551
NCI-H727	0.613	0.868	0.822	0.89	0.54	0.629	0.764	0.591	0.531	0.655	0.511	0.533	0.675	0.504		0.681	0.791	0.516	0.55
NCI-H838	0.823	0.964	0.746	0.979	0.267	0.286	0.309	0.264	0.254	1.1	1.06	1.1	0.968	1.02	0.785	0.776	0.818	0.719	0.687
NCI-H1355	0.945	0.887	0.952	0.718	0.583	0.612	0.66	0.548	0.553	0.834	0.943	0.842	0.815	0.803	0.743	0.753	0.723	0.646	0.617
NCI-H1395	1.08	1.07		1.13	0.726	0.692	0.813	0.677	0.705	1.15	1.07	1.13	1	1.06	0.439	0.441	0.51	0.354	0.385
NCI-H1437	0.616	0.759	0.687	0.72	0.422	0.415	0.422	0.422	0.415	1.03	0.922	0.957	0.953	1.05	0.614	0.606	0.632	0.583	0.523
NCI-H1651	0.862	1.03	0.724	0.988	0.716	0.779	0.674	0.684	0.684	0.966	0.941	1.03	0.93	0.92	0.187	0.177	0.173	0.145	0.0979
NCI-H1666	0.488	0.712	0.673	0.744	0.594	0.589	0.631	0.531	0.5	0.925	0.951	0.808	0.586	0.499	0.731	0.729	0.771	0.639	0.604
